Assay results taken from ChEMBL document CHEMBL1148480, “Structure-activity studies of orexin a and orexin B at the human orexin 1 and orexin 2 receptors led to orexin 2 receptor selective and orexin 1 receptor preferring ligands” (J Med Chem, 2004).
pEC50: −log10 of the molar value. Starred links: 1 amine or outer side, 2 acyl side, 3 side chain; linkers in the order of their positions; H or OH if unused. Non-standard residues stand in square brackets, D forms with d. Residues, ends and D or L forms follow the SMILES beside them. Groups on a side chain read outwards from the residue. X2 = N=C(N)NCCC[C@@H](C(=O)[*:2])N(CCCCCC(=O)[C@H](CC(=O)O)N[*:3])[*:1]; pGlu = O=C1CC[C@@H](C(=O)O)N1

What was measured:
[1] = biological target: T1, Orexin receptor type 2 (Homo sapiens, UniProt O43614); experiment: Effective agonist concentration to the human Orexin receptor type 2 was determined using the Xlfit program; format: functional
T1 sequence (O43614 whole entry): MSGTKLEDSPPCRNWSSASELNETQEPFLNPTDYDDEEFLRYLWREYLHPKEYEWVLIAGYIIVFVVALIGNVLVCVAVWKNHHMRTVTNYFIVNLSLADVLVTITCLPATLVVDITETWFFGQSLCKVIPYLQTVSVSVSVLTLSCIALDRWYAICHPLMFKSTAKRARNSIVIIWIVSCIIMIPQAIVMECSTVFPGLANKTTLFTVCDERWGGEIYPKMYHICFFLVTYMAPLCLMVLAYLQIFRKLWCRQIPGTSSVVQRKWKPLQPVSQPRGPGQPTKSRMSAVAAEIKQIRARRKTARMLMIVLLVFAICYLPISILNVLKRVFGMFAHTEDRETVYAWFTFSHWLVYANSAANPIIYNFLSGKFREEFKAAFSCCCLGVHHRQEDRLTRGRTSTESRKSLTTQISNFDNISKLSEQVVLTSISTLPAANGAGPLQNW

[2] = biological target: T2, Orexin/Hypocretin receptor type 1 (Homo sapiens, UniProt O43613); experiment: Effective agonist concentration to human orexin receptor type 1 determined using the Xlfit program; format: functional
T2 sequence (O43613 whole entry): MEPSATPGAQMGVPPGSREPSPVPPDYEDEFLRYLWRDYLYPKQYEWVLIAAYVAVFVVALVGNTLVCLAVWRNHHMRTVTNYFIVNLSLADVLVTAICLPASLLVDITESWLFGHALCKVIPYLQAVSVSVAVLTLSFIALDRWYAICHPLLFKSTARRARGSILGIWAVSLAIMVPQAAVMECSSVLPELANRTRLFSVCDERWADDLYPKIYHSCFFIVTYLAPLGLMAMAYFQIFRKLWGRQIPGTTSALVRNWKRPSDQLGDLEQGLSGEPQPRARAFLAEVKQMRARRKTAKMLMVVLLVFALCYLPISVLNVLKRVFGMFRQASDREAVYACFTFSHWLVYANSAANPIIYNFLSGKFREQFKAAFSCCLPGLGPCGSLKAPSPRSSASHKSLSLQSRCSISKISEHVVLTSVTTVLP

| Structure (SMILES) | pEC50 [1] | pEC50 [2] |
| --- | --- | --- |
| CC(C)C[C@H](NC(=O)[C@@H]1CCCN1C(=O)[C@@H]1CCC(=O)N1)C(=O)N1CCC[C@H]1C(=O)N[C@@H](CC(=O)O)C(=O)N[C@@H](CS)C(=O)N[C@@H](CS)C(=O)N[C@@H](CCCN=C(N)N)C(=O)N[C@@H](CCC(N)=O)C(=O)N[C@@H](CCCCN)C(=O)N[C@H](C(=O)O)[C@@H](C)O | < 3.00 | < 3.00 |
| CC(C)C[C@H](NC(=O)[C@@H]1CCCN1C(=O)[C@@H]1CCC(=O)N1)C(=O)N1CCC[C@H]1C(=O)N[C@@H](CC(=O)O)C(=O)N[C@@H](CS)C(=O)N[C@@H](CS)C(=O)N[C@@H](CCCN=C(N)N)C(=O)N[C@@H](CCC(N)=O)C(=O)N[C@@H](CCCCN)C(=O)N[C@H](C(=O)N[C@@H](CS)C(=O)N[C@@H](CO)C(=O)O)[C@@H](C)O | < 3.00 | < 3.00 |
| CC[C@H](C)[C@H](NC(=O)CNC(=O)[C@H](C)NC(=O)[C@H](C)NC(=O)[C@H](Cc1cnc[nH]1)NC(=O)[C@H](CC(N)=O)NC(=O)CNC(=O)[C@H](C)NC(=O)CNC(=O)[C@H](Cc1cnc[nH]1)NC(=O)[C@H](CC(C)C)NC(=O)[C@H](CC(C)C)NC(=O)[C@H](CCC(=O)O)NC(=O)[C@H](Cc1ccc(O)cc1)NC(=O)[C@H](CC(C)C)NC(=O)[C@H](CCCNC(=N)N)NC(=O)[C@H](CSSC[C@H](NC(=O)[C@@H](N)CO)C(=O)N[C@@H](CCCNC(=N)N)C(=O)N[C@@H](CC(C)C)C(=O)N[C@@H](Cc1ccc(O)cc1)C(=O)N[C@@H](CCC(=O)O)C(=O)N[C@@H](CC(C)C)C(=O)N[C@@H](CC(C)C)C(=O)N[C@@H](Cc1cnc[nH]1)C(=O)NCC(=O)N[C@@H](C)C(=O)NCC(=O)N[C@@H](CC(N)=O)C(=O)N[C@@H](Cc1cnc[nH]1)C(=O)N[C@@H](C)C(=O)N[C@@H](C)C(=O)NCC(=O)N[C@H](C(=O)N[C@@H](CC(C)C)C(=O)N[C@H](C(=O)N[C@@H](CC(C)C)C(=O)O)[C@@H](C)O)[C@@H](C)CC)NC(=O)[C@@H](N)CO)C(=O)N[C@@H](CC(C)C)C(=O)N[C@H](C(=O)N[C@@H](CC(C)C)C(=O)O)[C@@H](C)O | 6.62 | 6.16 |
| CC[C@H](C)[C@H](NC(=O)CNC(=O)[C@H](C)NC(=O)[C@H](C)NC(=O)[C@H](Cc1c[nH]cn1)NC(=O)[C@H](CC(N)=O)NC(=O)CNC(=O)[C@H](C)N)C(=O)N[C@@H](CC(C)C)C(=O)N[C@H](C(=O)N[C@@H](CC(C)C)C(=O)O)[C@@H](C)O (H-AGNHAAGILTL-OH) | < 3.00 | < 3.00 |
| CC[C@H](C)[C@H](NC(=O)CNC(=O)[C@H](C)NC(=O)[C@H](C)NC(=O)[C@H](Cc1cnc[nH]1)NC(=O)[C@H](CC(N)=O)NC(=O)CNC(=O)[C@H](CO)NC(=O)[C@H](C)NC(=O)[C@H](CCC(N)=O)NC(=O)[C@H](CC(C)C)NC(=O)[C@H](CC(C)C)NC(=O)[C@H](CCCNC(=N)N)NC(=O)[C@H](CCC(N)=O)NC(=O)[C@H](CC(C)C)NC(=O)[C@H](CCCNC(=N)N)NC(=O)CNC(=O)[C@H](CCC(N)=O)NC(=O)[C@H](CC(C)C)NC(=O)[C@H](C)N)C(=O)N[C@@H](CC(C)C)C(=O)N[C@H](C(=O)N[C@@H](CCSC)C(=O)O)[C@@H](C)O (H-ALQGRLQRLLQASGNHAAGILTM-OH) | 6.24 | 5.50 |
| CC[C@H](C)[C@H](NC(=O)CNC(=O)[C@H](C)NC(=O)[C@H](C)NC(=O)[C@H](Cc1cnc[nH]1)NC(=O)[C@H](CC(N)=O)NC(=O)CNC(=O)[C@H](CO)NC(=O)[C@H](C)NC(=O)[C@H](CCC(N)=O)NC(=O)[C@H](C)NC(=O)[C@H](CC(C)C)NC(=O)[C@H](CCCNC(=N)N)NC(=O)[C@H](CCC(N)=O)NC(=O)[C@H](CC(C)C)NC(=O)[C@H](CCCNC(=N)N)NC(=O)CNC(=O)[C@H](CCC(N)=O)NC(=O)[C@H](CC(C)C)NC(=O)CN)C(=O)N[C@@H](CC(C)C)C(=O)N[C@H](C(=O)N[C@@H](CCSC)C(=O)O)[C@@H](C)O (H-GLQGRLQRLAQASGNHAAGILTM-OH) | 5.63 | < 3.00 |
| CC[C@H](C)[C@H](NC(=O)CNC(=O)[C@H](C)NC(=O)[C@H](C)NC(=O)[C@H](Cc1cnc[nH]1)NC(=O)[C@H](CC(N)=O)NC(=O)CNC(=O)[C@H](CO)NC(=O)[C@H](C)NC(=O)[C@H](C)NC(=O)[C@H](CC(C)C)NC(=O)[C@H](CC(C)C)NC(=O)[C@H](CCCNC(=N)N)NC(=O)[C@H](CCC(N)=O)NC(=O)[C@H](CC(C)C)NC(=O)[C@H](CCCNC(=N)N)NC(=O)CNC(=O)[C@H](CCC(N)=O)NC(=O)[C@H](CC(C)C)NC(=O)CN)C(=O)N[C@@H](CC(C)C)C(=O)N[C@H](C(=O)N[C@@H](CCSC)C(=O)O)[C@@H](C)O (H-GLQGRLQRLLAASGNHAAGILTM-OH) | 6.72 | 5.79 |
| CSCC[C@H](NC(=O)[C@@H](NC(=O)[C@H](CC(C)C)NC(=O)[C@H](C)NC(=O)CNC(=O)[C@H](C)NC(=O)[C@H](C)NC(=O)[C@H](Cc1c[nH]cn1)NC(=O)[C@H](CC(N)=O)NC(=O)CNC(=O)[C@H](CO)NC(=O)[C@H](C)NC(=O)[C@H](CCC(N)=O)NC(=O)[C@H](CC(C)C)NC(=O)[C@H](CC(C)C)NC(=O)[C@H](CCCN=C(N)N)NC(=O)[C@H](CCC(N)=O)NC(=O)[C@H](CC(C)C)NC(=O)[C@H](CCCN=C(N)N)NC(=O)CNC(=O)[C@H](CCC(N)=O)NC(=O)[C@H](CC(C)C)NC(=O)CN)[C@@H](C)O)C(=O)O (H-GLQGRLQRLLQASGNHAAGALTM-OH) | < 3.00 | < 3.00 |
| CC[C@H](C)[C@H](NC(=O)CNC(=O)[C@H](C)NC(=O)[C@H](C)NC(=O)[C@H](Cc1c[nH]cn1)NC(=O)[C@H](CC(N)=O)NC(=O)CNC(=O)[C@H](C)NC(=O)CNC(=O)[C@H](Cc1c[nH]cn1)NC(=O)[C@H](CC(C)C)NC(=O)[C@@H](N)CC(C)C)C(=O)N[C@@H](CC(C)C)C(=O)N[C@H](C(=O)N[C@@H](CC(C)C)C(=O)O)[C@@H](C)O (H-LLHGAGNHAAGILTL-OH) | < 3.00 | – |
| CC[C@H](C)[C@H](NC(=O)CNC(=O)[C@H](C)NC(=O)[C@H](C)NC(=O)[C@H](Cc1cnc[nH]1)NC(=O)[C@H](CC(N)=O)NC(=O)CNC(=O)[C@H](CO)NC(=O)[C@H](C)NC(=O)[C@H](CCC(N)=O)NC(=O)[C@H](CC(C)C)NC(=O)[C@@H](N)CC(C)C)C(=O)N[C@@H](CC(C)C)C(=O)N[C@H](C(=O)N[C@@H](CCSC)C(=O)O)[C@@H](C)O (H-LLQASGNHAAGILTM-OH) | < 3.00 | – |
| CC[C@H](C)[C@H](NC(=O)CNC(=O)[C@H](C)NC(=O)[C@H](C)NC(=O)[C@H](Cc1cnc[nH]1)NC(=O)[C@H](CC(N)=O)NC(=O)CNC(=O)[C@H](CO)NC(=O)[C@H](C)NC(=O)[C@H](CCC(N)=O)NC(=O)[C@H](CC(C)C)NC(=O)[C@H](CC(C)C)NC(=O)[C@H](CCCNC(=N)N)NC(=O)[C@H](CCC(N)=O)NC(=O)[C@H](CC(C)C)NC(=O)[C@H](CCCNC(=N)N)NC(=O)CNC(=O)[C@@H](N)CCC(N)=O)C(=O)N[C@@H](CC(C)C)C(=O)N[C@H](C(=O)N[C@@H](CCSC)C(=O)O)[C@@H](C)O (H-QGRLQRLLQASGNHAAGILTM-OH) | 5.91 | – |
| CC[C@H](C)[C@H](NC(=O)CNC(=O)[C@H](C)NC(=O)[C@H](C)NC(=O)[C@H](Cc1cnc[nH]1)NC(=O)[C@H](CC(N)=O)NC(=O)CNC(=O)[C@H](C)NC(=O)CNC(=O)[C@H](Cc1cnc[nH]1)NC(=O)[C@H](CC(C)C)NC(=O)[C@H](CC(C)C)NC(=O)[C@H](CCC(=O)O)NC(=O)[C@H](Cc1ccc(O)cc1)NC(=O)[C@H](CC(C)C)NC(=O)[C@H](CCCNC(=N)N)NCCCCCC(=O)[C@H](CC(=O)O)NC(=O)[C@@H]1CCCN1C(=O)[C@H](CC(C)C)NC(=O)[C@@H]1CCCN1C(=O)[C@@H]1CCC(=O)N1)C(=O)N[C@@H](CC(C)C)C(=O)N[C@H](C(=O)N[C@@H](CC(C)C)C(=O)O)[C@@H](C)O (H-[X2]([Pro-Leu-Pro-pGlu])LYELLHGAGNHAAGILTL-OH) | 6.19 | – |
| CC[C@H](C)[C@H](NC(=O)CNC(=O)[C@H](C)NC(=O)[C@H](C)NC(=O)[C@H](Cc1c[nH]cn1)NC(=O)[C@H](CC(N)=O)NC(=O)CNC(=O)[C@H](CO)NC(=O)[C@H](C)NC(=O)[C@H](CCC(N)=O)NC(=O)[C@H](CC(C)C)NC(=O)[C@H](CC(C)C)NC(=O)[C@H](CCCN=C(N)N)NC(=O)[C@@H]1CCCN1C(=O)[C@H](CC(C)C)NC(=O)[C@H](CCCN=C(N)N)NC(=O)CNC(=O)[C@H](CCC(N)=O)NC(=O)[C@H](CC(C)C)NC(=O)CN)C(=O)N[C@@H](CC(C)C)C(=O)N[C@H](C(=O)N[C@@H](CCSC)C(=O)O)[C@@H](C)O (stereo in doubt; form 1) | 6.55 | – |
| CC[C@H](C)[C@H](NC(=O)CNC(=O)[C@H](C)NC(=O)[C@H](C)NC(=O)[C@H](Cc1c[nH]cn1)NC(=O)[C@H](CC(N)=O)NC(=O)CNC(=O)[C@H](CO)NC(=O)[C@H](C)NC(=O)[C@H](CCC(N)=O)NC(=O)[C@H](CC(C)C)NC(=O)[C@H](CC(C)C)NC(=O)[C@H](CCCN=C(N)N)NC(=O)[C@@H]1CCCN1C(=O)[C@H](CC(C)C)NC(=O)[C@H](CCCN=C(N)N)NC(=O)CNC(=O)[C@H](CCC(N)=O)NC(=O)[C@H](CC(C)C)NC(=O)CN)C(=O)N[C@@H](CC(C)C)C(=O)N[C@H](C(=O)N[C@@H](CCSC)C(=O)O)[C@@H](C)O (stereo in doubt; form 2) | 6.44 | – |
